Experimental data taken from patent US9957274B2, “Indane inhibitors of EED and methods of their use” (AbbVie Inc., priority 2016, dated 2018).

Legend:
[1] = biological target: EED (Homo sapiens, UniProt O75530); assay: EED TR-FRET Binding Assay (modified LanthaScreen competition assay)
Experimental: Compounds were tested in a modified LanthaScreen competition assay.
The following buffer was used to set up the binding reactions: 20 mM Tris-HCl pH 7.5, 200 mM NaCl, 0.01% Tween-20, 10 uM DTT (dithiothreitol), and 0.05% BSA (bovine serum albumin), with the DTT and BSA added fresh prior to initiating the binding assay. […] The reactions were then incubated for 1 hour at 25° C. in a humidified chamber prior to detection on the Perkin Elmer Envision plate reader using a Lanthascreen TR-FRET protocol.

[2] = tested on: Pfeiffer cells; assay: CTG cell viability assay (CellTiter-Glo); type: cell-based; details: Homo sapiens, 240 h; Pfeiffer cells, 10 days with compound, CellTiter-Glo; read-out: Cell Proliferation IC50
Experimental: 1,000 cells were plated into each well of 96-well Corning CellBing cell culture plates and incubated overnight at 37° C. in a humidified CO2 incubator. […] The cell culture plates were then incubated for 10 more days. CTG cell viability assay was performed on the cell culture samples by using CellTiter-Glo® Luminescent Cell Viability Assay Kit (Promega).

Chain of EED (O75530 whole entry): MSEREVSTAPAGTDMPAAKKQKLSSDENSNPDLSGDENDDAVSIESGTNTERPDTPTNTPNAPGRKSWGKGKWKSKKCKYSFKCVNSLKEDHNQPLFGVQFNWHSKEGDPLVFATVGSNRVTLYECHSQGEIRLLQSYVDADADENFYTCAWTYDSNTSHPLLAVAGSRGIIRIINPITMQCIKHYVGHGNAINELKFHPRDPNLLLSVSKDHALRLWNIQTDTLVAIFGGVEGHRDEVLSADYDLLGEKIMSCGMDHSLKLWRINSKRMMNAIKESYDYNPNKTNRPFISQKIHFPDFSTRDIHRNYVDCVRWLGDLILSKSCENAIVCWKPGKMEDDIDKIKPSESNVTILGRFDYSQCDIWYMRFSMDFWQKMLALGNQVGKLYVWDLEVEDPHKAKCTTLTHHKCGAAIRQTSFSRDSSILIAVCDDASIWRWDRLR

Structure (SMILES) | IC50 [1] | IC50 [2]
CN(C)[C@H]1CN(C2CCc3cccc(F)c32)C[C@@H]1C1CCN(c2ccccc2)CC1 (mixture of isomers) [Example 146, rac-(3R,4S)-1-(7-fluoro-2,3-dihydro-1H-inden-1-yl)-N,N-dimethyl-4-(1-phenylpiperidin-4-yl)pyrrolidin-3-amine] | 4.58 nM | 2900 nM
CN(C)[C@H]1CN(C2CCc3cccc(F)c32)C[C@@H]1c1cn(C)c2cc(C(=O)N3CCN(S(C)(=O)=O)CC3)ccc12 (mixture of isomers) [Example 122, rac-{3-[(3S,4R)-4-(dimethylamino)-1-(7-fluoro-2,3-dihydro-1H-inden-1-yl)pyrrolidin-3-yl]-1-methyl-1H-indol-6-yl}[4-(methanesulfonyl)piperazin-1-yl]methanone] | 2.88 nM | 556 nM
CN(C(=O)c1cccc2c([C@H]3CN(C4CCc5cccc(F)c54)C[C@@H]3N(C)C)cn(C)c12)C1CC(O)C1 (mixture of isomers) [Example 109, rac-3-[(3S,4R)-4-(dimethylamino)-1-(7-fluoro-2,3-dihydro-1H-inden-1-yl)pyrrolidin-3-yl]-N-(3-hydroxycyclobutyl)-N,1-dimethyl-1H-indole-7-carboxamide] | 1.6 nM | 141 nM
CN(C)[C@@H]1CN(C2CCc3cccc(F)c32)C[C@H]1c1ccc(N2CCN(C(=O)C3COC3)CC2)nc1 (mixture of isomers) [Example 151, rac-(4-{5-[(3R,4S)-4-(dimethylamino)-1-(7-fluoro-2,3-dihydro-1H-inden-1-yl)pyrrolidin-3-yl]pyridin-2-yl}piperazin-1-yl)(oxetan-3-yl)methanone] | 2.24 nM | 559 nM
CN(C)[C@H]1CN(C2CCc3cccc(F)c32)C[C@@H]1c1cn(C)c2c(C(=O)NC3CCS(=O)(=O)C3)cccc12 (mixture of isomers) [Example 115, rac-3-[(3S,4R)-4-(dimethylamino)-1-(7-fluoro-2,3-dihydro-1H-inden-1-yl)pyrrolidin-3-yl]-N-(1,1-dioxo-1lambda~6~-thiolan-3-yl)-1-methyl-1H-indole-7-carboxamide] | 1.73 nM | 224 nM
CN(C)[C@@H]1CN(C2CCc3cccc(F)c32)C[C@H]1c1ccc(-c2ncco2)cc1 (mixture of isomers) [Example 66, rac-(3S,4R)-1-(7-fluoro-2,3-dihydro-1H-inden-1-yl)-N,N-dimethyl-4-[4-(1,3-oxazol-2-yl)phenyl]pyrrolidin-3-amine] | 2.68 nM | 1130 nM
CN(C)C(=O)N1CCN(C(=O)c2cccc3c([C@H]4CN(C5CCc6cccc(F)c65)C[C@@H]4N(C)C)cn(C)c23)CC1 (mixture of isomers) [Example 127, rac-4-{3-[(3S,4R)-4-(dimethylamino)-1-(7-fluoro-2,3-dihydro-1H-inden-1-yl)pyrrolidin-3-yl]-1-methyl-1H-indole-7-carbonyl}-N,N-dimethylpiperazine-1-carboxamide] | 1.75 nM | 335 nM
CN(C)[C@H]1CN(C2CCc3cccc(F)c32)C[C@@H]1c1cn(C)c2c(C(=O)N3CCN(c4cccnn4)CC3)cccc12 (mixture of isomers) [Example 137, rac-{3-[(3S,4R)-4-(dimethylamino)-1-(7-fluoro-2,3-dihydro-1H-inden-1-yl)pyrrolidin-3-yl]-1-methyl-1H-indol-7-yl}[4-(pyridazin-3-yl)piperazin-1-yl]methanone] | 1.91 nM | 299 nM
CN(C)[C@H]1CN(C2CCc3cccc(F)c32)C[C@@H]1c1cn(C)c2c(C(=O)N3CCC[C@H]3CO)cccc12 (mixture of isomers) [Example 116, rac-{3-[(3S,4R)-4-(dimethylamino)-1-(7-fluoro-2,3-dihydro-1H-inden-1-yl)pyrrolidin-3-yl]-1-methyl-1H-indol-7-yl}[(2S)-2-(hydroxymethyl)pyrrolidin-1-yl]methanone] | 1.77 nM | 99.6 nM
CN(C)[C@@H]1CN(C2CCc3cccc(F)c32)C[C@H]1c1ccc(N2CCNCC2)cc1 (mixture of isomers) [Example 41, rac-(3S,4R)-1-(7-fluoro-2,3-dihydro-1H-inden-1-yl)-N,N-dimethyl-4-[4-(piperazin-1-yl)phenyl]pyrrolidin-3-amine] | 1.99 nM | 188 nM
Cc1noc(-c2ccc([C@H]3CN(C4CCc5cccc(F)c54)C[C@@H]3N(C)C)cc2)n1 (mixture of isomers) [Example 67, rac-(3R,4S)-1-(7-fluoro-2,3-dihydro-1H-inden-1-yl)-N,N-dimethyl-4-[4-(3-methyl-1,2,4-oxadiazol-5-yl)phenyl]pyrrolidin-3-amine] | 3.06 nM | 1630 nM
CN(C)[C@H]1CN([C@H]2CCc3cccc(F)c32)C[C@@H]1c1cn(C)c2cccnc12 (mixture of isomers) [Example 138, rac-(3R,4S)-1-[(1S)-7-fluoro-2,3-dihydro-1H-inden-1-yl]-N,N-dimethyl-4-(1-methyl-1H-pyrrolo[3,2-b]pyridin-3-yl)pyrrolidin-3-amine] | 119 nM | 
CN(C)[C@H]1CN(C2CCc3cccc(Cl)c32)C[C@@H]1c1ccc(C(=O)O)cc1 (mixture of isomers) [Example 28, rac-4-[(3S,4R)-1-(7-chloro-2,3-dihydro-1H-inden-1-yl)-4-(dimethylamino)pyrrolidin-3-yl]benzoic acid] | 489 nM | 
COC(=O)c1cccc2c([C@@H]3CN(C4CCc5cccc(F)c54)C[C@H]3N(C)C)cn(C)c12 (stereo partly drawn) [Example 86, methyl 3-[(3R,4S)-4-(dimethylamino)-1-(7-fluoro-2,3-dihydro-1H-inden-1-yl)pyrrolidin-3-yl]-1-methyl-1H-indole-7-carboxylate] | 14.8 nM | 
Cc1cccc2c1C(N1C[C@H](c3cn(C)c4ccccc34)[C@@H](N(C)C)C1)CC2 (stereo partly drawn) [Example 100, (3R,4S)-N,N-dimethyl-1-(7-methyl-2,3-dihydro-1H-inden-1-yl)-4-(1-methyl-1H-indol-3-yl)pyrrolidin-3-amine] | 58.4 nM | 
CN(C)[C@@H]1CN([C@@H]2CCc3cccc(F)c32)C[C@H]1C1COc2ccccc21 (mixture of isomers) [Example 139, rac-(3S,4R)-4-(2,3-dihydro-1-benzofuran-3-yl)-1-[(1R)-7-fluoro-2,3-dihydro-1H-inden-1-yl]-N,N-dimethylpyrrolidin-3-amine] | 83.5 nM | 
COC(=O)c1cccc2c([C@H]3CN(C4CCc5cccc(F)c54)C[C@@H]3N(C)C)cn(C)c12 (mixture of isomers) [Example 85, rac-methyl 3-[(3S,4R)-4-(dimethylamino)-1-(7-fluoro-2,3-dihydro-1H-inden-1-yl)pyrrolidin-3-yl]-1-methyl-1H-indole-7-carboxylate] | 0.561 nM | 
CN(C)[C@@H]1CN(C2CCc3cccc(F)c32)C[C@H]1c1cn(C)c2c(C(=O)N3CC(F)C3)cccc12 (stereo partly drawn) [Example 104, {3-[(3R,4S)-4-(dimethylamino)-1-(7-fluoro-2,3-dihydro-1H-inden-1-yl)pyrrolidin-3-yl]-1-methyl-1H-indol-7-yl}(3-fluoroazetidin-1-yl)methanone] | 15.3 nM | 
CC(=O)N1CCN(c2ccc([C@@H]3CN([C@H]4CCc5cccc(F)c54)C[C@H]3N(C)C)cc2)CC1 [Example 47, 1-[4-(4-{(3R,4S)-4-(dimethylamino)-1-[(1S)-7-fluoro-2,3-dihydro-1H-inden-1-yl]pyrrolidin-3-yl}phenyl)piperazin-1-yl]ethan-1-one] | 42.3 nM | 
CCS(=O)(=O)N1CCN(C(=O)c2ccc([C@H]3CN(C4CCc5cccc(F)c54)C[C@@H]3N(C)C)cc2)CC1 (mixture of isomers) [Example 57, rac-{4-[(3S,4R)-4-(dimethylamino)-1-(7-fluoro-2,3-dihydro-1H-inden-1-yl)pyrrolidin-3-yl]phenyl}[4-(ethanesulfonyl)piperazin-1-yl]methanone] | 12.3 nM | 
CN(C)[C@H]1CN(C2CCc3cccc(F)c32)C[C@@H]1c1cn(C)c2cc(Br)ccc12 (mixture of isomers) [Example 94, rac-(3R,4S)-4-(6-bromo-1-methyl-1H-indol-3-yl)-1-(7-fluoro-2,3-dihydro-1H-inden-1-yl)-N,N-dimethylpyrrolidin-3-amine] | 4.9 nM | 
CN(C)[C@@H]1CN(C2CCc3cccc(F)c32)C[C@H]1c1ccc(C(=O)O)cc1 (mixture of isomers) [Example 29, rac-4-[(3R,4S)-4-(dimethylamino)-1-(7-fluoro-2,3-dihydro-1H-inden-1-yl)pyrrolidin-3-yl]benzoic acid] | 23.2 nM | 
CN(C)[C@@H]1CN([C@H]2CCc3ccccc32)C[C@H]1c1ccc(S(C)(=O)=O)cc1 [Example 10, (3S,4R)-1-[(1S)-2,3-dihydro-1H-inden-1-yl]-4-[4-(methanesulfonyl)phenyl]-N,N-dimethylpyrrolidin-3-amine] | 290 nM | 
Cc1coc(-c2ccc([C@@H]3CN(C4CCc5cccc(F)c54)C[C@H]3N(C)C)cc2)n1 (mixture of isomers) [Example 69, rac-(3S,4R)-1-(7-fluoro-2,3-dihydro-1H-inden-1-yl)-N,N-dimethyl-4-[4-(4-methyl-1,3-oxazol-2-yl)phenyl]pyrrolidin-3-amine] | 3.89 nM | 
Cc1cc([C@H]2CN(C3c4ccccc4CC3O)C[C@@H]2N(C)C)ccc1C#N (mixture of isomers) [Example 38, rac-4-[(3S,4R)-4-(dimethylamino)-1-(2-hydroxy-2,3-dihydro-1H-inden-1-yl)pyrrolidin-3-yl]-2-methylbenzonitrile] | 68.7 nM | 
CN(C)[C@H]1CN([C@H]2C[C@H](O)c3cccc(F)c32)C[C@@H]1c1ccc(S(C)(=O)=O)cc1 (mixture of isomers) [Example 18, rac-(1S,3S)-3-{(3R,4S)-3-(dimethylamino)-4-[4-(methanesulfonyl)phenyl]pyrrolidin-1-yl}-4-fluoro-2,3-dihydro-1H-inden-1-ol] | 16.2 nM | 
